The record followed here is PubChem BioAssay AID1919014 (Molecular Pharmacology Branch, DTP, NCI, 2023).

The structures appear in SMILES notation. Values joined by “and” are separate entries in the source; they are usually repeats but may differ in a detail not shown here. Equal values may be shown once. Where only a bound is given, the exact number is not on record here.

The experiment concerns NCI-H1341 complex spheroids, percent test/control. Put plainly: Anticancer human tumor NCI-H1341 cell line growth inhibition [AhR].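 For all read-outs here: spheroids exposed to agents for seven days before readout.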 Particulars: for viability, T/C: stronger effect = lower value; for IC50: curve of compound. The text has this: Multicellular complex tumor spheroid response to aryl hydrocarbon receptor antagonists in combination with a variety of drugs and investigational agents in selected tumor cell lines
The current study was undertaken to assess response to aryl hydrocarbon receptor antagonists in combination with standard-of-care drugs and investigational agents in solid tumor complex spheroid models. Complex spheroids include a stromal component modeled by human endothelial cells (HUVEC) and fibroblasts modeled by human mesenchymal stem cells (MSCs). The concentration ranges selected for each drug and investigational agent were based upon clinically achievable concentrations if the clinical Cmax of the agent was known.
Compounds. The drugs and investigational agents: BAY 2416964 (NSC825713), GNF351 (NSC835774), CH-223191 (NSC835775), CPI-455 (NSC825282), aza-TdCyd (NSC777586), decitabine (NSC127716), belinostat (NSC758774), entinostat (NSC756642), pevonedistat (NSC761192), tazemetostat (NSC777109), talazoparib (NSC765396), olaparib (NSC753686), selinexor (NSC780203), nedisertib (M3814, NSC802822), bortezomib (NSC756655), venetoclax (NSC766270), doxorubicin (NSC123127), elimusertib (BAY189344, NSC800525), ceralasertib (AZD6738, NSC777638), TAK-243 (NSC785004), alisertib (NSC759677), etoposide (NSC141540), topotecan (NSC609699), eribulin (NSC707389), gemcitabine (NSC613327), carboplatin (NSC241240), cisplatin (NSC119875), and SN-38 (NSC673596) were obtained from the National Cancer Institute (NCI) Developmental Therapeutics Program Chemical Repository (32). The FDA-approved anticancer drug set is available from the Developmental Therapeutics Program at https://dtp.cancer.gov/organization/dscb/obtaining/available plates.htm. […] The stock solutions were prepared in dimethyl sulfoxide (DMSO, Sigma-Aldrich, St. Louis, MO, cat. D2650), except for the platinum compounds which were prepared in saline (Quality Biological, Gaithersburg, MD, cat. 114-055-101), at 800-fold the tested concentration and stored at -70 degrees C prior to their use. All drugs and investigational agents were tested over a range starting from a high concentration at or near the clinical Cmax and decreasing in half-log increments. If the clinical Cmax for an agent had not been determined, the highest concentration tested was 10 microM (Table 1).
Cell Culture. All cells were maintained in an incubator at 37 degrees C and 5% CO2 with 95% humidity. The PDC lines were cultured according to standard operating procedures established by the NCI PDMR (https://pdmr.cancer.gov). Briefly, all PDCs were thawed and cultured in Matrigel-coated flasks prepared with a working solution of 1X Ham's F-12 nutrient mix, without supplementation (Invitrogen, Waltham, MA, cat. 11765054), 100 U/mL penicillin-streptomycin (Invitrogen, cat. 15140122), and 2.5% Matrigel (Corning Inc., Corning, NY, cat. 354248) for the first three passages. All PDCs were cultured in complete DMEM/F-12 media containing advanced DMEM/F-12 (Invitrogen, cat. 12634028), 4.9% defined fetal bovine serum, heat inactivated (HyClone Laboratories Inc., Logan, UT, cat. SH30070.03HI), 389 ng/mL hydrocortisone (Sigma-Aldrich, cat. H4001), 9.7 ng/mL human EGF recombinant protein (Invitrogen, cat. PHG0313), 23.4 microg/mL adenine (Sigma-Aldrich, cat. A2786), 97.3 U/mL penicillin-streptomycin (Invitrogen, cat. 15140122), 1.9 mM L-glutamine (Invitrogen, cat. 25030081), and 9.7 microM Y-27632 dihydrochloride (Tocris Bioscience, Bristol, United Kingdom, cat. 1254). The PDCs were cultured in complete DMEM/F12 media without 10 microM Y-27632 dihydrochloride for at least two passages prior to the screen. The established cell lines NCI-H1341 and […] were cultured in DMEM/F-12, HEPES (Invitrogen, cat. 11330032), 5% defined fetal bovine serum (HyClone Laboratories Inc., cat. SH30070.03), ITS premix universal culture supplement [insulin (5 microg/mL), transferrin (5 microg/mL), and selenious acid (5 ng/mL)] […]

What is called viability, T/C is the result in the treated group divided by that in the control group, in per cent. The term IC50 denotes the point on the concentration scale where inhibition reaches its midpoint. Regarding `Cn1ncnc1C1c2n[nH]c(=O)c3cc(F)cc(c23)NC1c1ccc(F)cc1` (stereo not drawn), the IC50 was more than 100 nM. In addition, the viability, T/C (compound 0.000316 µM) is 125% and 98% and 95.9%. The viability, T/C (compound 0.001 µM) was 88.8% and 101% and 99%. The viability, T/C (compound 0.00316 µM) is 97.2% and 99.4% and 99.8%. For the same molecule, the viability, T/C (compound 0.01 µM) is 96.9% and 109% and 95.9%. The viability, T/C (compound 0.0316 µM) is 85.5% and 74% and 100%. Further, the viability, T/C (compound 0.1 µM) was 89.4% and 76.9% and 71.7%.
With `NS(=O)(=O)OCC1CC(n2ccc3c(NC4CCc5ccccc54)ncnc32)CC1O` (stereo not drawn), the IC50 was 39.2 nM and < 31.6 nM. Where the note is “compound 0.0316 µM”, the viability, T/C is 52.1% and 44.4% and 32.1%. Also, under “compound 0.1 µM”, the viability, T/C is 41.7% and 37.3% and 22.6%. Moreover, the viability, T/C (compound 0.316 µM) is 27.1% and 18% and 11.2%. For the same molecule, the viability, T/C (compound 1 µM) is 12.3% and 12.1% and 6.23%. Besides, the viability, T/C (compound 3.16 µM) is 11.9% and 7.68% and 3.37%. Moreover, for the setting “compound 10 µM”, the viability, T/C is 11.4% and 4.21% and 2.28%.
With `Nc1ccccc1NC(=O)c1ccc(CNC(=O)OCc2cccnc2)cc1`, the IC50 was 457 nM and 718 nM and 183 nM. In addition, the viability, T/C (compound 0.0316 µM) is 86.1% and 87.6% and 78.7%. Moreover, the viability, T/C (compound 0.1 µM) is 92.3% and 84.5% and 75%. Further, the viability, T/C (compound 0.316 µM) was 59.9% and 74.8% and 27.3%. Also, the viability, T/C (compound 1 µM) is 24.3% and 40.5% and 16.6%. For the setting “compound 3.16 µM”, the viability, T/C was 5.76% and 6.13% and 5.26%. In addition, under “compound 10 µM”, the viability, T/C is 0.69% and 0.9% and 0.3%.
`Nc1ccn(C2OC(CO)C(O)C2(F)F)c(=O)n1` (stereo not drawn): the IC50 is less than 31.6 nM. Besides, the viability, T/C (compound 0.0316 µM) was 27.5% and 32.2% and 32.9%. For the setting “compound 0.1 µM”, the viability, T/C is 26.6% and 28.1% and 35.2%. In addition, the viability, T/C (compound 0.316 µM) is 24.2% and 25.8% and 36.1%. For the same molecule, the viability, T/C (compound 1 µM) is 24.8% and 27.9% and 31.6%. Moreover, the viability, T/C (compound 3.16 µM) is 23.1% and 24.4% and 33.5%. Besides, the viability, T/C (compound 10 µM) is 21.6% and 21.2% and 32.3%.
In the case of `Nc1ncn(C2CC(O)C(CO)O2)c(=O)n1` (stereo not drawn), the IC50 is 231 nM and 466 nM and 261 nM. The viability, T/C (compound 0.00316 µM) was 107% and 86.3% and 88.1%. Moreover, for the setting “compound 0.01 µM”, the viability, T/C is 95.4% and 112% and 100%. For the setting “compound 0.0316 µM”, the viability, T/C was 102% and 89.2% and 69.8%. The viability, T/C (compound 0.1 µM) was 64.2% and 72.3% and 74.5%. Where the note is “compound 0.316 µM”, the viability, T/C was 50.6% and 52.8% and 43.7%. The viability, T/C (compound 1 µM) is 37% and 45.7% and 25.6%.
`Nc1ncn(C2CC(O)C(CO)S2)c(=O)n1` (stereo not drawn): the IC50 was > 300 nM and 294 nM. For the setting “compound 0.000949 µM”, the viability, T/C was 109% and 96.2% and 95%. In addition, the viability, T/C (compound 0.003 µM) is 90.5% and 73.4% and 100%. In addition, the viability, T/C (compound 0.00949 µM) was 115% and 102% and 104%. The viability, T/C (compound 0.03 µM) is 105% and 80.6% and 104%. Moreover, the viability, T/C (compound 0.0949 µM) is 89.2% and 68.3% and 79%. Also, the viability, T/C (compound 0.3 µM) was 68.2% and 49.5% and 62%.
Take `O=C(C=Cc1cccc(S(=O)(=O)Nc2ccccc2)c1)NO`: the IC50 is 425 nM and 423 nM and 295 nM. The viability, T/C (compound 0.0316 µM) is 91.7% and 96.1% and 95.8%. In addition, the viability, T/C (compound 0.1 µM) is 87.7% and 85.4% and 80.2%. Moreover, where the note is “compound 0.316 µM”, the viability, T/C was 61.3% and 59% and 42.5%. In addition, the viability, T/C (compound 1 µM) was 17% and 24% and 28%. In addition, the viability, T/C (compound 3.16 µM) is 7.15% and 7.86% and 8.15%. In addition, the viability, T/C (compound 10 µM) is 1.07% and 0.78% and 0.36%.
`O=C(C=Cn1cnc(-c2cc(C(F)(F)F)cc(C(F)(F)F)c2)n1)NNc1cnccn1`: the IC50 is 122 nM and 51.9 nM and 59 nM. Also, where the note is “compound 0.00949 µM”, the viability, T/C is 92.3% and 73.3% and 75.8%. Besides, for the setting “compound 0.03 µM”, the viability, T/C was 77.8% and 68.4% and 79.9%. The viability, T/C (compound 0.0949 µM) is 61.5% and 30% and 30.5%. The viability, T/C (compound 0.3 µM) was 12.5% and 17.1% and 6.76%. For the same molecule, the viability, T/C (compound 0.949 µM) was 8.28% and 8.73% and 4.72%. In addition, for the setting “compound 3 µM”, the viability, T/C was 6.13% and 7.12% and 2.87%.
For `O=C(c1cc(Cc2n[nH]c(=O)c3ccccc23)ccc1F)N1CCN(C(=O)C2CC2)CC1`, the IC50 was more than 10000 nM. Moreover, the viability, T/C (compound 0.0316 µM) was 97.7% and 93.7% and 111%. Where the note is “compound 0.1 µM”, the viability, T/C was 100% and 83.7% and 108%. In addition, the viability, T/C (compound 0.316 µM) was 105% and 87.7% and 90.6%. For the same molecule, the viability, T/C (compound 1 µM) was 95.6% and 88% and 110%. Where the note is “compound 3.16 µM”, the viability, T/C was 102% and 86.6% and 83.1%. Also, for the setting “compound 10 µM”, the viability, T/C was 76.6% and 70.3% and 83.6%.
